# Test results from patent US12378211B2, “Carbonic anhydrase inhibitors and antibiotics against multidrug resistant bacteria” (Purdue Research Foundation, priority 2018, dated 2025).
# Where two headings read alike, the source gives them in different places.
# Tests used:
# [1] = test system: Enterococcus faecalis—S613 HM-334; assay: MIC of CAIs in BHIB and TSB; format: cell-based; settings: Enterococcus, read-out: MIC
# Method: The minimum inhibitory concentrations (MICs) of CAIs were tested against clinical isolates of vancomycin sensitive and vancomycin resistant Enterococci strains as per the guidelines provided by the Clinical and Laboratory Standards Institute (CLSI). The selected strains of Enterococci were streaked on Tryptic Soy Agar (TSA) plates and let grow for 24 hours at 37° C. Afterwards, a bacterial solution equivalent to 0.5 McFarland standard was prepared and diluted in tryptone soy broth (TSB) or brain heart infusion broth (BHIB) to achieve a bacterial concentration of about 5×10^5 CFU/mL and seeded in 96-well well plates. Compounds and control drugs were added in the first row of the 96-well plates and serially diluted along the plates. Plates were then incubated aerobically at 37° C. for 18-20 hours. MICs reported in Table 5 are the minimum concentration of the compounds/control drugs that could inhibit completely the visual growth of the bacteria. The MIC values of CAIs against the tested VRE strains were higher in BHIB than in TSB. This may be due to binding of these drugs to proteins. […] They inhibited the VRE strains at MIC values ranging from 1 to 4 μg/mL.
# [2] = test system: Enterococcus fecalis Strain SF 24397 NR31970; assay: MIC of CAIs in BHIB and TSB; format: cell-based; settings: Enterococcus, read-out: MIC
# Method: (§1) The minimum inhibitory concentrations (MICs) of CAIs were tested against clinical isolates of vancomycin sensitive and vancomycin resistant Enterococci strains as per the guidelines provided by the Clinical and Laboratory Standards Institute (CLSI). The selected strains of Enterococci were streaked on Tryptic Soy Agar (TSA) plates and let grow for 24 hours at 37° C. Afterwards, a bacterial solution equivalent to 0.5 McFarland standard was prepared and diluted in tryptone soy broth (TSB) or brain heart infusion broth (BHIB) to achieve a bacterial concentration of about 5×10^5 CFU/mL and seeded in 96-well well plates. Compounds and control drugs were added in the first row of the 96-well plates and serially diluted along the plates. Plates were then incubated aerobically at 37° C. for 18-20 hours. MICs reported in Table 5 are the minimum concentration of the compounds/control drugs that could inhibit completely the visual growth of the bacteria.
# [3] = test system: Enterococcus faecium E417-HM-965; assay: MIC of CAIs in BHIB and TSB; format: cell-based; settings: Enterococcus faecium, read-out: MIC
# Method: as §1
# [4] = test system: Enterococcus faecium Patient #2-1-NR-31909; assay: MIC of CAIs in BHIB and TSB; format: cell-based; settings: Enterococcus faecium, read-out: MIC
# Method: as §1
# gut microbiota = test system: gut microbiota; design: species or system C57BL/6 mice; settings: mouse, in vivo, po, 10 mg/kg
# Method: CAIs had no major impact on microbiota composition. An extremely promising and innovative feature of CAIs is their narrow spectrum of activity and their ability to decolonize VRE without harming the microbiome. […] To characterize the impact of CAIs administration on the composition of the gut microbiota we performed the following assay6. Female 12-week-old C57BL/6 mice (n=5 mice per group) were exposed to CAIs by oral gavage for 10 days (10 mg/kg daily). Twenty-four hours after last dose, mice were euthanized and cecal and colon contents were harvested. The microbiome was characterized using 16S rDNA gene sequencing. The microbiotas from treated mice were compared to those from a group of control mice. […] However, at the phylum level, we observed decrease in Firmicutes in CAIs treatment groups and likely due to decrease of enterococci as enterococcus is a large genus of the phylum Firmicutes. The Verrucomicrobia and Bacteroidetes remain constant while other phyla increase to fill the remaining percentage from Firmicute loss. […] Indeed, the use of traditional antibiotics can increase the selective pressure and contribute to the selection of other multi-drug-resistant organisms (Kofteridis D. et al., Int J Infect Dis 2009, 13, e313-315).
# [5] = test system: Enterococcus faecalis-S613 HM-334; assay: MIC in presence of 4% human serum albumin; format: cell-based; settings: Enterococcus; TSB supplemented with 4% human serum albumin; read-out: MIC
# Method: as §1, with “against” for “against clinical isolates of vancomycin sensitive and”, “resistant Enterococcus faecalis—S613 HM 334 strain” for “resistant Enterococci strains”, “selected strain was” for “selected strains of Enterococci were”, “(TSA) plate” for “(TSA) plates”, “(TSB) supplemented with 4% human serum albumin (HAS)” for “(TSB) or brain heart infusion broth (BHIB)”, “in table (6)” for “in Table 5”
# [6] = test system: Mutant-3 of Enterococcus fecalis NR 31975; assay: microbe, parasite or virus in culture; format: cell-based; settings: Enterococcus
# [7] = test system: Mutant-9 of Enterococcus fecalis NR 31975; assay: microbe, parasite or virus in culture; format: cell-based; settings: Enterococcus
# [8] = test system: Enterococcus faecium E417-HM-965; assay: MIC, broth microdilution in TSB; format: cell-based; settings: Enterococcus faecium, E417HM965, TSB
# Method: (§2) The minimum inhibitory concentrations (MICs) of the compounds and control drugs were determined using the broth microdilution method, according to guidelines outlined by the Clinical and Laboratory Standards Institute (CLSI). Enterococci strains were grown aerobically overnight on tryptone soya agar plates at 37° C., afterwards a bacterial solution equivalent to 0.5 McFarland standard was prepared and diluted in tryptone soy broth (TSB) to achieve a bacterial concentration of about 5×10^5 CFU/mL and seeded in 96-well well plates. Compounds and control drugs were added in the first row of the 96-well plates and serially diluted along the plates. Plates were then incubated aerobically at 37° C. for 18-20 hours. MICs reported in Table 1 are the minimum concentration of the compounds/control drugs that could inhibit completely the visual growth of the bacteria.
# [9] = test system: Enterococcus faecium Patient #2-1-NR-31909; assay: MIC, broth microdilution in TSB; format: cell-based; settings: Enterococcus faecium, TSB
# Method: as §2
# [10] = test system: Staphylococcus epidermidis NRS 101; assay: MIC against Staphylococci, broth microdilution; format: cell-based; settings: Staphylococcus epidermidis, NRS101; TSB; read-out: MIC
# Method: as §2, with “Institute (CLSI) 1. Staphylococci” for “Institute (CLSI). Enterococci”, “Table 2” for “Table 1”
# [11] = test system: Mutant-2 of Enterococcus fecalis NR 31975; assay: microbe, parasite or virus in culture; format: cell-based; settings: Enterococcus
# [12] = test system: Mutant-13 of Enterococcus fecalis NR 31975; assay: microbe, parasite or virus in culture; format: cell-based; settings: Enterococcus
# [13] = test system: Mutant-12 of Enterococcus fecalis NR 31975; assay: microbe, parasite or virus in culture; format: cell-based; settings: Enterococcus
# [14] = test system: Lactobacillus casei ATCC 334; assay: MIC against human normal gut microbiota; format: cell-based; settings: Lacticaseibacillus casei, ATCC334; MRS broth, 5% CO2, 48 hours; read-out: MIC
# Method: (§3) Three different bacterial strains were used in this experiment; Bifidobacterium (anaerobic Gram positive bacteria), Bacteroides (anaerobic Gram negative bacteria) and Lactobacillus (microaerophilic Gram positive bacteria). Bifidobacterium and Bacteroides were first grown for 48 hours at 37° C., anaerobically using brain heart infusion supplemented (BHIS) agar (Brain heart infusion agar supplemented with hemin, vitamin K and L-cysteine). Lactobacillus was cultivated on MRS agar and incubated in presence of 5% CO2 for 48 hours at 37° C. Each bacterium was suspended in phosphate buffered saline (PBS) to produce a suspension with optical density that matches 0.5 McFarland standard and diluted in brain heart infusion supplemented broth (for Bifidobacterium and Bacteroides) or in MRS broth (for Lactobacillus) to achieve bacterial concentration of approximately 5×10^5 CFU/ml. Bacteria were then seeded in 96-well plates containing serial dilutions of the compounds and incubated as mentioned previously for 48 hours.
# [15] = test system: Bacteroides fragilis—CL07T00C01 HIM-709; assay: MIC against human normal gut microbiota; format: cell-based; settings: Bacteroides; BHIS broth, anaerobic, 48 hours; read-out: MIC
# Method: as §3
# [16] = test system: Bifidobacterium breve—JCP7499 HIM 1120; assay: MIC against human normal gut microbiota; format: cell-based; settings: Bifidobacterium; BHIS broth, anaerobic, 48 hours; read-out: MIC
# Method: as §3
# [17] = test system: Bifidobacterium longum subsp. Longum—44B HM 845; assay: MIC against human normal gut microbiota; format: cell-based; settings: Bifidobacterium longum; BHIS broth, anaerobic, 48 hours; read-out: MIC
# Method: as §3
# [18] = test system: Bacteroides dorei—CL02T12C06 HM-719; assay: MIC against human normal gut microbiota; format: cell-based; settings: Bacteroides; BHIS broth, anaerobic, 48 hours; read-out: MIC
# Method: as §3
# [19] = test system: Lactobacillus gasseri EX336960VC03 HIM-400; assay: MIC against human normal gut microbiota; format: cell-based; settings: Lactobacillus gasseri; MRS broth, 5% CO2, 48 hours; read-out: MIC
# Method: as §3
# [20] = test system: Mutant-11 of Enterococcus fecalis NR 31975; assay: microbe, parasite or virus in culture; format: cell-based; settings: Enterococcus
# [21] = test system: Mutant-4 of Enterococcus fecalis NR 31975; assay: microbe, parasite or virus in culture; format: cell-based; settings: Enterococcus
# [22] = test system: Mutant-5 of Enterococcus fecalis NR 31975; assay: microbe, parasite or virus in culture; format: cell-based; settings: Enterococcus
# [23] = test system: Mutant-15 of Enterococcus fecalis NR 31975; assay: microbe, parasite or virus in culture; format: cell-based; settings: Enterococcus
# [24] = test system: Mutant-7 of Enterococcus fecalis NR 31975; assay: microbe, parasite or virus in culture; format: cell-based; settings: Enterococcus
# [25] = test system: Mutant-8 of Enterococcus fecalis NR 31975; assay: microbe, parasite or virus in culture; format: cell-based; settings: Enterococcus
# [26] = test system: Mutant-14 of Enterococcus fecalis NR 31975; assay: microbe, parasite or virus in culture; format: cell-based; settings: Enterococcus
# [27] = test system: Mutant-6 of Enterococcus fecalis NR 31975; assay: microbe, parasite or virus in culture; format: cell-based; settings: Enterococcus
# [28] = test system: MRSA NRS 384 (MRSA USA300); assay: MIC against Staphylococci, broth microdilution; format: cell-based, Staphylococcus aureus; settings: Staphylococcus aureus; TSB; read-out: MIC
# Method: as §2, with “Institute (CLSI) 1. Staphylococci” for “Institute (CLSI). Enterococci”, “Table 2” for “Table 1”
# [29] = Preliminary in vivo toxicity study; settings: 200 mg/kg twice daily (400 mg/kg daily) for three days
# [30] = test system: vancomycin-resistant E. faecium; assay: Mouse model of GI colonization by VRE; format: in vivo, C57BL/6 mice; settings: 10 mg/kg by oral gavage for 8 days; feces as early as 3rd day
# From the text: Feasibility in vivo study: AZM reduces VRE load in the intestines and faeces. The promising feature, and the specific and potent antimicrobial activity of CAIs, prompted us to evaluate the in vivo efficacy of AZM in our established mouse model of GI colonization by enterococci with features that mimic the antibiotic-induced enterococcal expansion observed in humans (Mohammad, H. et al., Int J Antimicrob Agents 2018, 51, 897-904; Abdelkhalek, A, et al., PLoS One 2018, 13, e0199710). We tested AZM (two clinical doses 10 and 20 mg/kg) in female 12-week-old C57BL/6 mice (n=5 mice per group) that were sensitized with ampicillin ([…] in drinking water) for 7 days to reduce the microbiota present in the gastrointestinal tract and colonized with 10^8 CFU/mL of vancomycin-resistant E. faecium.
# We thought that the rapid absorption of AZM from the gastrointestinal tract would limit their exposure time to VRE present in the gastrointestinal tract.
# Mice were treated for 8 days with 10 mg/kg of drugs by oral gavage.
smiles,measurement,setting,value
CCN[C@H]1C[C@H](C)S(=O)(=O)c2sc(S(N)(=O)=O)cc21 [Dorzolamide],MIC,[1]; BHIIB,> 128 mg/L
same,MIC,"[1]; TSB, Table 5",8 mg/L
same,MIC,[2]; BHIB,> 128 mg/L
same,MIC,"[2]; TSB, Table 5",8 mg/L
same,MIC,"[3]; E417HM965, BHIB",128 mg/L
same,MIC,"[3]; E417HM965, TSB, Table 5",16 mg/L
same,MIC,[4]; BHIB,> 128 mg/L
same,MIC,"[4]; TSB, Table 5",8 mg/L
same,taxonomic structure and composition of microbiota,gut microbiota,no major shift or change
same,MIC,[5],> 256 mg/L
"CCCC(=O)Nc1nnc(S(N)(=O)=O)s1 [CAI0013, N-(5-Sulfamoyl-1,3,4-thiadiazol-2-yl) butyramide]",MIC,[6],16 mg/L
same,MIC,[7],8 mg/L
same,MIC,"[8]; Table 1, read-out: MIC",0.5 mg/L
same,MIC,"[8]; Table 7, read-out: MIC in TSB",0.5 mg/L
same,MIC,"[9]; Table 1, read-out: MIC",0.5 mg/L
same,MIC,"[9]; Table 7, read-out: MIC in TSB",0.5 mg/L
same,MIC,[10],> 64 mg/L
same,MIC,[11],8 mg/L
same,MIC,[12],16 mg/L
same,MIC,[13],8 mg/L
same,MIC,[14],> 64 mg/L
same,MIC,[15],> 64 mg/L
same,MIC,[16],> 64 mg/L
same,MIC,[17],> 64 mg/L
same,MIC,[18],> 64 mg/L
same,MIC,[19],> 64 mg/L
same,MIC,[20],8 mg/L
same,MIC,[21],16 mg/L
same,MIC,[22],16 mg/L
same,MIC,[23],16 mg/L
same,MIC,[24],8 mg/L
same,MIC,[25],16 mg/L
same,MIC,[26],8 mg/L
same,MIC,[27],8 mg/L
same,MIC,[28],> 64 mg/L
"NS(=O)(=O)c1nnc(NCc2ccccc2C(F)(F)F)s1 [analog 8, 5-((2-(trifluoromethyl)benzyl)amino)-1,3,4-thiadiazole-2-sulfonamide]",signs of distress or toxicity,[29],None of the mice exhibited any signs of distress or toxicity
same,"reduction of VRE in the feces, cecum and ileum",[30],superior to AZM and linezolid
